Reference: patent US9862708B2, “Pyrazolone compounds and uses thereof” (Tempest Therapeutics, Inc., priority 2014, dated 2018)

Target: T1, human PPARα (Homo sapiens, UniProt Q07869)
T1 construct: host or cells: proprietary non-human mammalian cells
T1 sequence (Q07869 1-468): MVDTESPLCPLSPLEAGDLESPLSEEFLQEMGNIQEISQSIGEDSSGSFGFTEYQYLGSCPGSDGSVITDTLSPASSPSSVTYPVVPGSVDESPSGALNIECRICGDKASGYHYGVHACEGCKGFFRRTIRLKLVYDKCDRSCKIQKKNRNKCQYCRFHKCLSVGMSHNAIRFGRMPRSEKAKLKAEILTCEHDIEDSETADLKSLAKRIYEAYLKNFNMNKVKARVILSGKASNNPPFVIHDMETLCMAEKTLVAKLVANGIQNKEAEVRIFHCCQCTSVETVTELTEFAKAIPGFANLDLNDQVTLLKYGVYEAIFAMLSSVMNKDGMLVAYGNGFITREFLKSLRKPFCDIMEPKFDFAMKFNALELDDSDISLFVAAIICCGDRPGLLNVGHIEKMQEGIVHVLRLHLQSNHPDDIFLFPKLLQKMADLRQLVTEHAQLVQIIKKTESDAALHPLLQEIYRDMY
Experiment: Human PPARα Reporter Assay (luciferase, Indigo Biosciences)
Format: cell-based
Conditions: antagonism; luciferase reporter cells, overnight incubation; read-out: PPARα IC50
Experimental: Human PPARα Reporter Assay
The screening of test compounds for agonist or antagonist activities against human PPARα receptors was performed using a commercial kit, Human PPARα Reporter Assay System (Indigo Biosciences, Cat. #IB00111).
This nuclear receptor assay system utilizes proprietary non-human mammalian cells engineered to provide constitutive, high-level expression of Human PPARα. Because these cells incorporate a PPARα-responsive luciferase reporter gene, quantifying expressed luciferase activity provides a sensitive surrogate measure of PPARα activity in the treated cells. The primary application of this reporter assay system is in the screening of test samples to quantify any functional activity, either agonist or antagonist, that they may exert against human PPARα.
Briefly, reporter cells are dispensed into wells of the assay plate and then immediately dosed with test compounds. Following an overnight incubation, the treatment media is discarded and Luciferase Detection Reagent (LDR) is added. The intensity of light emission from the ensuing luciferase reaction provides a sensitive measure that is directly proportional to the relative level of PPARα activation in the reporter cells.

IC50	Structure (SMILES)
4.1 nM	CC1(C)C(=O)N(c2ccc(C(F)(F)F)cc2)N=C1CCCc1ccc(OC2(C(=O)O)CCCC2)cc1 [Example 52, 1-(4-(3-(4,4-dimethyl-5-oxo-1-(4-(trifluoromethyl)phenyl)-4,5-dihydro-1H-pyrazol-3-yl)propyl)phenoxy)cyclopentanecarboxylic acid]
8.9 nM	CC1(C)C(=O)N(c2cccc(C(F)(F)F)c2)N=C1CCCc1ccc(OC(C)(C(=O)O)c2ccccc2)cc1 (single isomer, unassigned) [54-enantiomer#2, 2-(4-(3-(4,4-dimethyl-5-oxo-1-(3-(trifluoromethyl)phenyl)-4,5-dihydro-1H-pyrazol-3-yl)propyl)phenoxy)-2-phenylpropanoic acid]
15000 nM	CCCC1(CCC)C(=O)N(c2ccc(C(F)(F)F)cc2)N=C1CCCc1ccc(OC(C)(C)C(=O)O)cc1 [Example 41, 2-methyl-2-(4-(3-(5-oxo-4,4-dipropyl-1-(4-(trifluoromethyl)phenyl)-4,5-dihydro-1H-pyrazol-3-yl)propyl)phenoxy)propanoic acid]
2.8 nM	CC(C)(Oc1ccc(CCCC2=NN(c3ccc4ccccc4c3)C(=O)C23CCCC3)cc1)C(=O)O [Example 37, 2-methyl-2-(4-(3-(3-(naphthalen-2-yl)-4-oxo-2,3-diazaspiro[4,4]non-1-en-1-yl)propyl)phenoxy)propanoic acid]
15 nM	CC(C)(Oc1ccc(CCCC2=NN(Cc3ccc(C(C)(C)C)cc3)C(=O)C2(C)C)cc1)C(=O)O [Example 1, 2-(4-(3-(1-(4-(tert-butyl)benzyl)-4,4-dimethyl-5-oxo-4,5-dihydro-1H-pyrazol-3-yl)propyl)phenoxy)-2-methylpropanoic acid]
54 nM	CC1(C)C(=O)N(c2ccc(C(F)(F)F)cc2)N=C1CCCc1ccc(OCC(=O)O)cc1 [Example 49, 2-(4-(3-(4,4-dimethyl-5-oxo-1-(4-(trifluoromethyl)phenyl)-4,5-dihydro-1H-pyrazol-3-yl)propyl)phenoxy)acetic acid]
420 nM	CC(C)(Oc1ccc(CCCC2=NN(Cc3ccc(C(C)(C)C)cc3)C(=O)C2(C)C)cc1)C(=O)NCC1CCCCC1 [Example 6, 2-(4-(3-(1-(4-(tert-butyl)benzyl)-4,4-dimethyl-5-oxo-4,5-dihydro-1H-pyrazol-3-yl)propyl)phenoxy)-N-(cyclohexylmethyl)-2-methylpropanamide]
0.97 nM	CC(C)(Oc1ccc(CCCC2=NN(c3ccc(OC(F)(F)F)cc3)C(=O)C23CCCC3)cc1)C(=O)O [Example 28, 2-methyl-2-(4-(3-(4-oxo-3-(4-(trifluoromethoxy)phenyl)-2,3-diazaspiro[4,4]non-1-en-1-yl)propyl)phenoxy)propanoic acid]
410 nM	CC(C)(Oc1ccc(CCCC2=NN(c3ccccc3)C(=O)C2(C)C)cc1)C(=O)O [Example 10, 2-(4-(3-(4,4-dimethyl-5-oxo-1-phenyl-4,5-dihydro-1H-pyrazol-3-yl)propyl)phenoxy)-2-methylpropanoic acid]
22 nM	CC(C)c1ccc(CN2N=C(CCCc3ccc(OC(C)(C)C(=O)O)cc3)C(C)(C)C2=O)cc1 [Example 12, 2-(4-(3-(1-(4-isopropylbenzyl)-4,4-dimethyl-5-oxo-4,5-dihydro-1H-pyrazol-3-yl)propyl)phenoxy)-2-methylpropanoic acid]
25 nM	CC(C)(Oc1ccc(CCCC2=NN(c3cccc(-c4ccccc4)c3)C(=O)C23CCCC3)cc1)C(=O)O [Example 38, 2-(4-(3-(3-([1,1′-biphenyl]-3-yl)-4-oxo-2,3-diazaspiro[4,4]non-1-en-1-yl)propyl)phenoxy)-2-methylpropanoic acid]
110 nM	CCOc1ccc(-c2ccc(CCCC3=NN(Cc4ccc(C(C)(C)C)cc4)C(=O)C3(C)C)cc2)cc1CC(=O)O [Example 55, 2-(4′-(3-(1-(4-(tert-butyl)benzyl)-4,4-dimethyl-5-oxo-4,5-dihydro-1H-pyrazol-3-yl)propyl)-4-ethoxy-[1,1′-biphenyl]-3-yl)acetic acid]
13 nM	CC(C)(Oc1ccc(CCCC2=NN(Cc3ccc(C(C)(C)C)cc3)C(=O)C23CCCC3)cc1)C(=O)O [Example 23, 2-(4-(3-(3-(4-(tert-butyl)benzyl)-4-oxo-2,3-diazaspiro[4,4]non-1-en-1-yl)propyl)phenoxy)-2-methylpropanoic acid]
140 nM	CC(C)(Oc1ccc(CCCC2=NN(Cc3ccc(C4CC4)cc3)C(=O)C2(C)C)cc1)C(=O)O [Example 16, 2-(4-(3-(1-(4-cyclopropylbenzyl)-4,4-dimethyl-5-oxo-4,5-dihydro-1H-pyrazol-3-yl)propyl)phenoxy)-2-methylpropanoic acid]
640 nM	CC1(C)C(=O)N(c2cccc(C(F)(F)F)c2)N=C1CCCc1ccc(OC(C)(C(=O)O)c2ccccc2)cc1 (single isomer, unassigned) [54-enantiomer#1, 2-(4-(3-(4,4-dimethyl-5-oxo-1-(3-(trifluoromethyl)phenyl)-4,5-dihydro-1H-pyrazol-3-yl)propyl)phenoxy)-2-phenylpropanoic acid]
250 nM	Cc1ccc(N2N=C(CCCc3ccc(OC(C)(C)C(=O)NC4CC4)cc3)C3(CCCC3)C2=O)cc1C [Example 32, N-cyclopropyl-2-(4-(3-(3-(3,4-dimethylphenyl)-4-oxo-2,3-diazaspiro[4,4]non-1-en-1-yl)propyl)phenoxy)-2-methylpropanamide]
710 nM	CC(C)(Oc1ccc(CCCC2=NN(c3ccc(OC(F)(F)F)cc3)C(=O)C23CCCC3)cc1)C(=O)NCC(F)(F)F [Example 30, 2-methyl-2-(4-(3-(4-oxo-3-(4-(trifluoromethoxy)phenyl)-2,3-diazaspiro[4,4]non-1-en-1-yl)propyl)phenoxy)-N-(2,2,2-trifluoroethyl)propanamide]
20 nM	CC(C)(Oc1ccc(CCCC2=NN(c3cccc(C(C)(C)C)c3)C(=O)C23CCCC3)cc1)C(=O)O [Example 40, 2-(4-(3-(3-(3-(tert-butyl)phenyl)-4-oxo-2,3-diazaspiro[4,4]non-1-en-1-yl)propyl)phenoxy)-2-methylpropanoic acid]
1.4 nM	CC(C)(Oc1ccc(CCCC2=NN(c3ccc(C(F)(F)F)cc3)C(=O)C23CCCC3)cc1)C(=O)O [Example 24, 2-methyl-2-(4-(3-(4-oxo-3-(4-(trifluoromethyl)phenyl)-2,3-diazaspiro[4,4]non-1-en-1-yl)propyl)phenoxy)propanoic acid]
580 nM	CC(C)(CNC(=O)c1ccccc1)Oc1ccc(CCCC2=NN(c3ccc(C(F)(F)F)cc3)C(=O)C23CCCC3)cc1 [Example 47, N-(2-methyl-2-(4-(3-(4-oxo-3-(4-(trifluoromethyl)phenyl)-2,3-diazaspiro[4,4]non-1-en-1-yl)propyl)phenoxy)propyl)benzamide]
360 nM	CC(C)(Oc1ccc(CCCC2=NN(Cc3ccc(Br)cc3)C(=O)C2(C)C)cc1)C(=O)O [Example 13, 2-(4-(3-(1-(4-bromobenzyl)-4,4-dimethyl-5-oxo-4,5-dihydro-1H-pyrazol-3-yl)propyl)phenoxy)-2-methylpropanoic acid]
3.8 nM	CC(C)(Oc1ccc(CCCC2=NN(c3ccc(C(F)(F)F)cc3)C(=O)C2(C)C)cc1)C(=O)O [Example 19, 2-(4-(3-(4,4-dimethyl-5-oxo-1-(4-(trifluoromethyl)phenyl)-4,5-dihydro-1H-pyrazol-3-yl)propyl)phenoxy)-2-methylpropanoic acid]
